Results on one compound are retold here after US20230102309A1, “TYROSINE KINASE INHIBITOR CONJUGATES” (Ascendis Pharma Oncology Division A/S, priority 2019, published 2023).

Marks after values point to notes of the source that are not given here.

One data set has as its system MC-38 tumor cells. In words: In vivo anti-tumor efficacy and combination efficacy with anti-PD1, bilateral MC-38 tumors. More on the design: species or system C57BL/6 mice. To be noted: Axitinib 25 mg/kg oral twice daily, antibodies 10 mg/kg IP; for Absolute tumor volume of left flank tumors, mean: left (not injected) tumor, hydrogels 50 μL IT into right tumor once Day 0 (7a 378, 8a 136, 8b 47 μg eq. axitinib); for Absolute tumor volume of right flank tumors, mean: right (IT-treated) tumor, hydrogels 50 μL IT once Day 0 (7a 378, 8a 136, 8b 47 μg eq. axitinib). As to the method: The study was conducted in female C57BL/6 mice with an age of 6-8 weeks at the day of tumor inoculation. Mice were implanted with 1×10^6 MC-38 tumor cells into the left and right flanks. When right flank tumors were grown to a mean tumor volume of ˜104 mm^3, mice were randomized into treatment cohorts. For animals that received intratumoral injections, the right tumor was selected for treatment.
(§1) Following treatment initiation, anti-tumor efficacy was assessed by determination of tumor volumes at various time points from tumor size measurements with a caliper. Tumor volumes were calculated according to the formula: […]
(§2) where L is the length of the tumor and W the width (both in mm).

A further data set deals with MC-38/C11G tumor cells. In words: Anti-tumor efficacy within the in vivo PK study. More on the design: species or system C57BL/6 mice. The conditions noted are these: Axitinib 3 mg/kg oral twice a day for 14 days, 9c single IT 50 μL. The protocol:
(§3) The study was conducted in female C57BL/6 mice with an age of 6-8 weeks at the day of tumor inoculation. Mice were implanted with 1×10^6 of MC-38/C11G tumor cells into the right flank.
(§4) When tumors were grown to a mean tumor volume of ˜94 mm^3, mice were randomized into treatment cohorts (day 0). Following randomization, animals received either a single intratumoral injection of hydrogel 1 or hydrogel 9c as a single intratumoral dose in an injection volume of 50 μL, or with orally administered Axitinib suspended in 0.5% carboxymethylcellulose at 3 mg/kg in a 100 μl dose volume twice a day for 14 days. Hydrogels were administered as suspensions in pH 5.5 20 mM sodium succinate, 77 g/l trehalose dihydrate, 0.2% Pluronic F-68 buffer.
as §1, §2

A short description of data set [1]: Axitinib concentration in plasma samples. Format: in vivo, C57BL/6 mice. To be noted: female, C57BL/6, mouse, 9c single IT 50 μL (n=4), Axitinib 3 mg/kg oral (n=3), LLOQ 50.0 pg/mL. As to the method:
as §3, §4
After 0.5, 1, 4 12, and 24 hours following treatment, 4 mice from the hydrogel 9c and Axitinib treated groups were sacrificed and terminal blood was collected in EDTA. Plasma was prepared after blood withdrawal. After 72 hours following treatment, 4 mice from the hydrogel 9c treated group were sacrificed and tumors were excised and snap frozen. Plasma samples underwent further processing by solid-phase extraction prior to Axitinib concentration determination by LCMS/MS.
All solvents (UPLC grade) as well as formic acid (ULC/MS quality) were purchased from Biosolve BV, Valkenswaard, The Netherlands. Axitinib concentrations in plasma were determined after solid phase extraction via liquid chromatography separation and detection by mass spectrometry (LCMS). As internal standard [^13C, D3]-axitinib was used. LCMS analysis was carried out by using an Agilent Infinity ultra high performance liquid chromatography (UHPLC) system coupled to an AbSciex 6500+ QTrap triple quadrupole mass spectrometer (QQQ) via an ESI probe. Chromatography was performed on a C18 analytical UHPLC column (YMC-Triart, 2.1×50 mm, 1.9 μm particle). Water containing 0.1% formic acid (v/v) was used as mobile phase A and acetonitrile with 0.1% formic acid as mobile phase B. The gradient system comprised a linear increase from 15% B to 30% B in 2.7 min. […]

Take `CNC(=O)c1ccccc1Sc1ccc2c(/C=C/c3ccccn3)n[nH]c2c1` [Axitinib, axitinib]: the “Absolute tumor volume of left flank tumors, mean” value is 112.18 mm^3 with MC-38 tumor cells (day 0 post-treatment); 321.44 mm^3 in the data set on MC-38 tumor cells (day 3 post-treatment); 432.85 mm^3 in the data set with MC-38 tumor cells (day 5 post-treatment); 601.11 mm^3 with MC-38 tumor cells (day 7 post-treatment); 741.81† mm^3 in the data set on MC-38 tumor cells (day 10 post-treatment); 967.56†, †† mm^3 in the data set with MC-38 tumor cells (day 12 post-treatment). Further, the “Absolute tumor volume of right flank tumors, mean” value with MC-38 tumor cells (day 0 post-treatment) is recorded as 104.22 mm^3; in the data set with MC-38 tumor cells (day 3 post-treatment), 304.55 mm^3; with MC-38 tumor cells (day 5 post-treatment), 419.99 mm^3; in the data set on MC-38 tumor cells (day 7 post-treatment) it was 543.06 mm^3; in the data set on MC-38 tumor cells (day 10 post-treatment), 763.99 mm^3; with MC-38 tumor cells (day 12 post-treatment), 994.16† mm^3. Further, the “Absolute tumor volume, mean” value was 93.862 mm^3 in the data set with MC-38/C11G tumor cells (day 0 post-treatment); 243.647 mm^3 in the data set with MC-38/C11G tumor cells (day 4 post-treatment); 418.787 mm^3 with MC-38/C11G tumor cells (day 7 post-treatment); 710.390 mm^3 in the data set on MC-38/C11G tumor cells (day 11 post-treatment); 977.619* mm^3 in the data set with MC-38/C11G tumor cells (day 14 post-treatment). In data set [1] (0.5 h), this compound returned a concentration at 0.5 h of 101 ng/mL. The same compound had a concentration at 1 h in data set [1] (1 h) of 76.8 ng/mL. In data set [1] (12 h), this compound yielded a concentration at 12 h of 0.797 ng/mL.
